Data published in ChEMBL document CHEMBL3763124, “N-Benzylbenzamides: A Novel Merged Scaffold for Orally Available Dual Soluble Epoxide Hydrolase/Peroxisome Proliferator-Activated Receptor γ Modulators” (J Med Chem, 2016).
In brackets after ≈: the same amount, converted by molar mass. Activity calls are given as the source filed them. No cut-off for these calls is given here.

What was measured:
[1] = Solubility of the compound in water by microplate reader analysis; assay type: physicochemical
[2] = target: T1, Bifunctional epoxide hydrolase 2 (Homo sapiens, UniProt P34913); test: Inhibition of human recombinant sEH using PHOME as substrate preincubated for 30 mins followed by substrate addition measured for 30 mins by fluorescence-based assay
T1 sequence (P34913 whole entry): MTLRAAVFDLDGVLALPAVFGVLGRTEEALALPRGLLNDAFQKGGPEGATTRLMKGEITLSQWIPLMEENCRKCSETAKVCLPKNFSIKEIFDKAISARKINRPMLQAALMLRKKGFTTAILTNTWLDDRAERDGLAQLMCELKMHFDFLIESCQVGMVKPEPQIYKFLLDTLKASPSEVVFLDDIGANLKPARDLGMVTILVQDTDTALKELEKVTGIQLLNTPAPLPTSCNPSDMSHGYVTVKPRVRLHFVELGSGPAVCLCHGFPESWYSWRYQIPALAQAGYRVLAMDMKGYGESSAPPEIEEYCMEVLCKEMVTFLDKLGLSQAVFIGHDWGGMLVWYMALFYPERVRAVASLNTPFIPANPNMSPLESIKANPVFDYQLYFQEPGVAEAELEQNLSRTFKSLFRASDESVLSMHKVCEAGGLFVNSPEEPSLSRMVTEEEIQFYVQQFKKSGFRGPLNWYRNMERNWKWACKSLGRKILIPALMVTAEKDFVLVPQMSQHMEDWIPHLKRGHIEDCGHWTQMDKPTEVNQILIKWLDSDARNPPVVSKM

[3] = target: T2, Peroxisome proliferator-activated receptor delta (Homo sapiens, UniProt Q03181); test: Transactivation of human PPARdelta expressed in African green monkey COS7 cells incubated overnight by dual-glo luciferase reporter gene assay; assay type: cell-based; settings: cos-7
T2 sequence (Q03181 whole entry): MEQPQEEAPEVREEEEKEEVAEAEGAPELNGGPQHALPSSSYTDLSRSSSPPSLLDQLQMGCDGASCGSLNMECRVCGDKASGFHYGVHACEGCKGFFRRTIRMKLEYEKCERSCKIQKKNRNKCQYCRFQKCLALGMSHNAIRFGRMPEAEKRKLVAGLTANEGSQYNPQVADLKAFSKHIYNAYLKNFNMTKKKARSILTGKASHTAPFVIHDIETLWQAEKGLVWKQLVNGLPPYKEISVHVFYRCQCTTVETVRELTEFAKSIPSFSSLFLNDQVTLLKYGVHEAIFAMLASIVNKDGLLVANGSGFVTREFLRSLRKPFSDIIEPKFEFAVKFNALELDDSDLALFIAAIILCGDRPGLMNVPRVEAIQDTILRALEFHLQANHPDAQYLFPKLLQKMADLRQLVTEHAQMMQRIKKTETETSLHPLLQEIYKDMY

[4] = target: T3, Peroxisome proliferator-activated receptor alpha (Homo sapiens) (UniProt Q07869); test: Transactivation of human PPARalpha expressed in African green monkey COS7 cells incubated overnight by dual-glo luciferase reporter assay relative to GW7647; assay type: cell-based; settings: COS-7
T3 sequence (whole entry): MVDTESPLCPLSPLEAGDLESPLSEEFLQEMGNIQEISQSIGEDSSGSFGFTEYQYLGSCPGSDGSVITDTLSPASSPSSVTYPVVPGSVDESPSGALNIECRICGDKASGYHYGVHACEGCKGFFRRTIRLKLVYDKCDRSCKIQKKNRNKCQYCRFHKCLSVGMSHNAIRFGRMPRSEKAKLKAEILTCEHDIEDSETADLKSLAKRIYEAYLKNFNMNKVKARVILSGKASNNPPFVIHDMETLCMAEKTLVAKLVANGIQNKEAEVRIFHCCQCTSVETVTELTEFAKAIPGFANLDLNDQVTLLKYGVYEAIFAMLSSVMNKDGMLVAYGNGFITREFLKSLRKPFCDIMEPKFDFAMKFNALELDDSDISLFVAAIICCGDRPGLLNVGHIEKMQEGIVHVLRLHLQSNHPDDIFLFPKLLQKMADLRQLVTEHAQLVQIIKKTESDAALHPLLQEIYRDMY

[5] = target: T4, Peroxisome proliferator-activated receptor alpha (Homo sapiens, UniProt Q07869); settings: cos-7
T4 sequence (Q07869 whole entry): T3 sequence (whole entry)
Description: (§1) Transactivation of human PPARalpha expressed in African green monkey COS7 cells incubated overnight by dual-glo luciferase reporter gene assay

[6] = target: T5, Peroxisome proliferator-activated receptor gamma (Homo sapiens, UniProt P37231); settings: cos-7
T5 sequence (P37231 whole entry): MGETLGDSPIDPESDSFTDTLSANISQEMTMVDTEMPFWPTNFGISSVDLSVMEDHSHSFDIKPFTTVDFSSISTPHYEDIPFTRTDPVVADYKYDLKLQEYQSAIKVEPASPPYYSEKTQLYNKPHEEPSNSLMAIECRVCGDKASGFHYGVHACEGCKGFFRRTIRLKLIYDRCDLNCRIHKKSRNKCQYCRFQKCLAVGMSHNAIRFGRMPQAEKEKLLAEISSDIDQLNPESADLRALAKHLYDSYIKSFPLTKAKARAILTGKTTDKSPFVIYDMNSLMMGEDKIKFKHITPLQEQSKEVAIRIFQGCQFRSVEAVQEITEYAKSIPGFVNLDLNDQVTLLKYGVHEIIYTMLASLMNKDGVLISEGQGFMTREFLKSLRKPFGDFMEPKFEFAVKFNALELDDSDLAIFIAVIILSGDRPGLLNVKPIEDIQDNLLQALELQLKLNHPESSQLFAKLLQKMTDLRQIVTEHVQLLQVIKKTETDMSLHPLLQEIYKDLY
Description: Transactivation of human PPARgamma expressed in African green monkey COS7 cells incubated overnight by dual-glo luciferase reporter gene assay

[7] = target: T6, Peroxisome proliferator-activated receptor gamma (Homo sapiens) (UniProt P37231); test: Transactivation of human PPARgamma expressed in African green monkey COS7 cells at 10 uM incubated overnight by dual-glo luciferase reporter gene assay; assay type: cell-based; settings: COS-7
T6 sequence (whole entry): T5 sequence (P37231 whole entry)

[8] = target: T7, Peroxisome proliferator-activated receptor delta (Homo sapiens) (UniProt Q03181); test: Transactivation of human PPARdelta expressed in African green monkey COS7 cells at 10 uM incubated overnight by dual-glo luciferase reporter assay; assay type: cell-based; settings: COS-7
T7 sequence (whole entry): T2 sequence (Q03181 whole entry)

[9] = target: T4, Peroxisome proliferator-activated receptor alpha
Description: as §1

[10] = Apparent oral clearance in RjOrl:Swiss (CD-1) mouse plasma at 30 mg/kg; assay type: ADME, organism-based
HepG2 = test: Cytotoxicity against human HepG2 cells assessed as cell viability up to 30 uM after 48 hrs by WST-1 assay; assay type: cell-based; settings: hepg2, 48 h
[11] = target: T8, Peroxisome proliferator-activated receptor gamma (Mus musculus) (UniProt P37238); test: Transactivation of PPARgamma in mouse 3T3L1 cells assessed as adipocyte differentiation by Oil Red O staining-based assay; assay type: cell-based; settings: 3T3-L1
T8 sequence (whole entry): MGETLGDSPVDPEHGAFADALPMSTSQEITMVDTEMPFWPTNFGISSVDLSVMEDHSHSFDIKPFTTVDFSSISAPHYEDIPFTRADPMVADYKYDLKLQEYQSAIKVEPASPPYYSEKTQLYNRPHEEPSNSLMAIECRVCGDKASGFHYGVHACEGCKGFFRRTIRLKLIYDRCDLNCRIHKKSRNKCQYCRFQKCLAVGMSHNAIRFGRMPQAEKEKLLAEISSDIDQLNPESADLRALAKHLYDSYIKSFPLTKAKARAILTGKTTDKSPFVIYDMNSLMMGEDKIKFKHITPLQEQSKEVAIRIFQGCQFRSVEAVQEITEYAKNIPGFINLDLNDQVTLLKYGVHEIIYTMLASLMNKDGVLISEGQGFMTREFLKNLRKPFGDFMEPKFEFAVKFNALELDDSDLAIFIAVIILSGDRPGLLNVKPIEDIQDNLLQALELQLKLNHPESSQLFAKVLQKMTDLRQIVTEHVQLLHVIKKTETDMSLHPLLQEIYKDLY

[12] = target: T6, Peroxisome proliferator-activated receptor gamma (Homo sapiens); test: Transactivation of PPARgamma in human primary preadipocytes assessed as adipocyte differentiation by Oil Red O staining-based assay; assay type: cell-based
[13] = target: T8, Peroxisome proliferator-activated receptor gamma (Mus musculus); test: Transactivation of PPARgamma in mouse 3T3L1 cells assessed as increase in […] expression by qPCR method; assay type: cell-based; settings: 3T3-L1
[14] = target: T8, Peroxisome proliferator-activated receptor gamma (Mus musculus); test: Transactivation of PPARgamma in mouse 3T3L1 cells assessed as increase in adiponectin expression by qPCR method; assay type: cell-based; settings: 3T3-L1
[15] = target: T8, Peroxisome proliferator-activated receptor gamma (Mus musculus); test: Transactivation of PPARgamma in mouse 3T3L1 cells assessed as increase in FABP4 expression by qPCR method; assay type: cell-based; settings: 3T3-L1
[16] = target: T8, Peroxisome proliferator-activated receptor gamma (Mus musculus); test: Transactivation of PPARgamma in mouse 3T3L1 cells assessed as increase in LPL expression by qPCR method; assay type: cell-based; settings: 3T3-L1
[17] = target: T6, Peroxisome proliferator-activated receptor gamma (Homo sapiens); test: Transactivation of PPARgamma in human primary preadipocytes assessed as increase in […] expression at 10 uM by qPCR method; assay type: cell-based
[18] = target: T6, Peroxisome proliferator-activated receptor gamma (Homo sapiens); test: Transactivation of PPARgamma in human primary preadipocytes assessed as increase in adiponectin expression at 10 uM by qPCR method; assay type: cell-based
[19] = target: T6, Peroxisome proliferator-activated receptor gamma (Homo sapiens); test: Transactivation of PPARgamma in human primary preadipocytes assessed as increase in FABP4 expression at 10 uM by qPCR method; assay type: cell-based
[20] = target: T6, Peroxisome proliferator-activated receptor gamma (Homo sapiens); test: Transactivation of PPARgamma in human primary preadipocytes assessed as increase in LPL expression at 10 uM by qPCR method; assay type: cell-based
Mus musculus = test: Drug level in RjOrl:Swiss (CD-1) mouse plasma treated with Ethyl 2-Ethyl 3-[4-(N-((2-trifluoromethyl)benzyl)benzamide)]propanoate at 30 mg/kg, po administered as single dose; assay type: ADME, organism-based; settings: in vivo

Compound	solubility [1] [µM]	EC50 [3]	Emax [4]	EC50 [5]	EC50 [6]	Emax [8]	also measured
CCOC(=O)C(CC)Cc1ccc(C(=O)NCc2ccccc2Br)cc1 (configuration not stated)	20 (≈ 8.37 µg/mL)	Not Active	inactive	Not Active	Not Active		IC50 [2]: 4 µM
CON(C)C(=O)C1CC1c1ccc(C(=O)NCc2ccccc2C(F)(F)F)cc1 (configuration not stated)		Not Active	inactive	Not Active		inactive	Activity [7]: 30%
CCOC(=O)C(CC)Cc1ccc(C(=O)NCc2ccc(Oc3ccccc3)cc2)cc1 (configuration not stated)		Not Active	110%				EC50 [9]: 4 µM
CCC(Cc1ccc(C(=O)NCc2ccccc2C(F)(F)F)cc1)C(=O)O (configuration not stated)	75 (≈ 28.5 µg/mL)	Not Active	inactive	Not Active		inactive	CL/F [10]: 31.7 mL/min/kg; Activity (HepG2): Non-toxic; Activity [11]: Dose-dependent effect; Activity [12]: Dose-dependent effect; Activity [13]: Dose-dependent effect; Activity [14]: Dose-dependent effect; Activity [15]: Dose-dependent effect; Activity [16]: Dose-dependent effect; Activity [17]: Active; Activity [18]: Active; Activity [19]: Active; Activity [20]: Active; Drug metabolism (Mus musculus): metabolite_detected
CON(C)C(=O)/C=C/c1ccc(C(=O)NCc2ccccc2C(F)(F)F)cc1		Not Active	inactive	Not Active	Not Active	inactive	
